Earlier results in patent US11654108B1, “Sennoside medicated chews” (MEDICATED CHEWS, LLC, priority 2022, dated 2023).

[1] = after oral administration of sennosides

## sennosides
[1]
  metabolites excreted in urine: 3-6%
  sennosides excreted in feces as polymers (polyquinones): 90%
  unchanged sennosides, sennidins, rheinanthrone and rhein excreted in feces: 2-6%
Upper gut, human digestive enzymes
  absorption in the upper gut / splitting by human digestive enzymes: neither absorbed in the upper gut nor split by human digestive enzymes
